Data reported in patent EP4721744A1, “PHARMACEUTICAL COMPOSITION COMPRISING CEPHALOSPORIN ANTIBACTERIAL COMPOUND” (Jiangsu Hengrui Pharmaceuticals Co., Ltd., priority 2023, dated 2024).

What was measured:
[1] = Solubility test in different solvent systems; type: physicochemical
Description: Different solvent systems were prepared to test the solubility of the compound as shown in formula (I). Table 1 Solubility test

[2] = bulk compound; needs to be stored at or below -60°C; cited from earlier work
[3] = Purified water + 1 M NaOH solution for pH adjustment, 4.9 ml, charging amount 500.4 mg
[4] = Purified water, 250 mL, charging amount 20.01 mg

- Dissolution Status ([1]; Hydrochloric acid (pH 1.0), 200 mL, charging amount 19.99 mg): Incomplete dissolution
- Dissolution Status [1, 3]: Complete dissolution
- Solution pH after complete dissolution [1, 3]: 5.08
- Dissolution Status ([1]; Purified water, 20 mL, charging amount 20.01 mg): Incomplete dissolution
- Dissolution Status [1, 4]: Complete dissolution
- Solution pH after complete dissolution [1, 4]: 3.6
- solubility ([1]; Purified water, 250 mL, solution pH 3.6): < 1 mg/mL
- solubility ([1]; purified water adjusted with 1 M NaOH solution, aqueous buffer, Purified water + 1 M NaOH solution for pH adjustment, 4.9 ml, solution pH 5.08): ≥ 100 mg/mL
Structure (SMILES): CC(C)(O/N=C(\C(=O)N[C@@H]1C(=O)N2C(C(=O)[O-])=C(C[N+]3(CCCN(CCCNC(=O)c4ccc(O)c(O)c4Cl)C(=O)c4ccc(O)c(O)c4Cl)CCCC3)CS[C@H]12)c1csc(N)n1)C(=O)O [compound as shown in formula (I)]
- stability [2]: extremely poor stability
